Results reported in ChEMBL document CHEMBL3217627, “Designing glucokinase activators with reduced hypoglycemia risk: discovery of N,N-dimethyl-5-(2-methyl-6-((5-methylpyrazin-2-yl)-carbamoyl)benzofuran-4-yloxy)pyrimidine-2-carboxamide as a clinical candidate for the treatment of type 2 diabetes mellitus” (Medchemcomm, 2011).
In brackets after ≈: the same amount, converted by molar mass. Activity calls are given as the source filed them. The calls are words filed in the database; no cut-off is given here.

Tests used:
[1] = Kinetic solubility of the compound; type: physicochemical; details: read-out: Kinetic_solubility
[2] = biological target: T1, Hexokinase-4 (Homo sapiens, UniProt P35557)
T1 sequence (P35557 whole entry): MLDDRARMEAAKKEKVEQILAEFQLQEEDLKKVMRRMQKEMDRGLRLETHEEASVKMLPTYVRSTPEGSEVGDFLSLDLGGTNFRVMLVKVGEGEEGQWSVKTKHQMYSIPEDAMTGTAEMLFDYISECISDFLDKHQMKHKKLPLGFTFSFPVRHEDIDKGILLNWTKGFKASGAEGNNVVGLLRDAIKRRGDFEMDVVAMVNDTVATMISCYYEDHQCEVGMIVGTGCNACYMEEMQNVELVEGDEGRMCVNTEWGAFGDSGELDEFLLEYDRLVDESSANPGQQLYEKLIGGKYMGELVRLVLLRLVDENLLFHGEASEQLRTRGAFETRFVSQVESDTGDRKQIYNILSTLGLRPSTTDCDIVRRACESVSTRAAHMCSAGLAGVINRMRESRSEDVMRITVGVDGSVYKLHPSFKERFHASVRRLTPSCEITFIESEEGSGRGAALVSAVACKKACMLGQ
Description: Activation of recombinant human glucokinase assessed as formation of glucose-6-phosphate by G6PDH/NADP coupled assay

[3] = biological target: Voltage-gated inwardly rectifying potassium channel KCNH2 (Homo sapiens, UniProt Q12809); experiment: Inhibition of dofetilide binding to human ERG
Sequence of Voltage-gated inwardly rectifying potassium channel KCNH2 (Q12809 whole entry): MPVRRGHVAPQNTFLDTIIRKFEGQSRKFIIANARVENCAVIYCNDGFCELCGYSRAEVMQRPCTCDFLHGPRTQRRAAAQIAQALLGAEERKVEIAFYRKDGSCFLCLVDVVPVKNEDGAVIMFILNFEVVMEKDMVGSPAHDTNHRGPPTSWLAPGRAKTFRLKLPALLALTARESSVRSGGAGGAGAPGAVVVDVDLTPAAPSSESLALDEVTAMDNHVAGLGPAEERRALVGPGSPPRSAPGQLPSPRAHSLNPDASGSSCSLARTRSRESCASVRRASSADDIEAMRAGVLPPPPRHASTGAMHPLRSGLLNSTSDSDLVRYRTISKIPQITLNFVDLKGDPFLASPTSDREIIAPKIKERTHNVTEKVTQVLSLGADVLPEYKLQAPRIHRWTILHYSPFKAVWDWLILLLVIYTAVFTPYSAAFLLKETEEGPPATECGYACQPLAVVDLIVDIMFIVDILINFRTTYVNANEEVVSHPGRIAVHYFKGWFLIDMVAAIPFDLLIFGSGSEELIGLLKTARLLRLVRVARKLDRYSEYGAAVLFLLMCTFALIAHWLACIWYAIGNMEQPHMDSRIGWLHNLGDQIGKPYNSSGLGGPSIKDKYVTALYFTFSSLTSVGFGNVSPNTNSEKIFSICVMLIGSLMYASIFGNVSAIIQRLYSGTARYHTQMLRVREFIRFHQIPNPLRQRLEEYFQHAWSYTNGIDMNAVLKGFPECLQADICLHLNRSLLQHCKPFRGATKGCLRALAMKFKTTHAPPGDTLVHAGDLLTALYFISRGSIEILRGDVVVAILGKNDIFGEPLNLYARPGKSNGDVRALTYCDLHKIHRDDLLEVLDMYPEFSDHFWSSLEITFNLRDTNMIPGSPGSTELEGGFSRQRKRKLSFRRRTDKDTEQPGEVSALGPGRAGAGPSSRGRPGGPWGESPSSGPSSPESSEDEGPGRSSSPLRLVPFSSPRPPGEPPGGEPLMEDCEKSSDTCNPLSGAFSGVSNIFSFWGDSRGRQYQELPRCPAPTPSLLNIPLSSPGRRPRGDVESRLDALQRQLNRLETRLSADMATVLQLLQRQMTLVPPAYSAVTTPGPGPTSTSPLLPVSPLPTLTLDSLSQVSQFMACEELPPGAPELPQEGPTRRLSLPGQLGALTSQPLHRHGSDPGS

[4] = Intrinsic clearance in human liver microsomes; type: ADME; details: read-out: CLH
[5] = Passive permeability across RRCK cells; type: ADME, cell-based, Canis lupus familiaris, MDCKII-LE; details: dog, MDCK; read-out: permeability
[6] = biological target: hERG (KCNH2) (Homo sapiens, UniProt Q12809); experiment: Inhibition of dofetilide binding to human ERG at 10 uM relative to control; details: probe dofetilide
Sequence of hERG (KCNH2) (Q12809 whole entry): as above

[7] = biological target: T2, Hexokinase-4 (Rattus norvegicus, UniProt P17712); experiment: Activation of rat glucokinase
T2 sequence (P17712 whole entry): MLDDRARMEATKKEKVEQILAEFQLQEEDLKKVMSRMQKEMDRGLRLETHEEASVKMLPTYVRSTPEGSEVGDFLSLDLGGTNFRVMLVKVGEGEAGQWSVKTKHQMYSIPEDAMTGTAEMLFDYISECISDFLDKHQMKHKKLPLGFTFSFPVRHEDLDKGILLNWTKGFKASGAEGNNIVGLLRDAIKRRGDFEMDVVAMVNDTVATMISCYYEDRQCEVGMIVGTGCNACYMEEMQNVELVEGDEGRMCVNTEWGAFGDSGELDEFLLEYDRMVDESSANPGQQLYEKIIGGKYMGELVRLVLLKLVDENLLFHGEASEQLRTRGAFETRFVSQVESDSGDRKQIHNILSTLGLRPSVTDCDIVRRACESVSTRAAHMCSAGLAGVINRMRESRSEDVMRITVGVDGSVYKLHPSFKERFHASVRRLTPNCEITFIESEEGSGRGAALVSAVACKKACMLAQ

[8] = Half life in female Sprague-Dawley rat at 1 mg/kg, iv and po; type: ADME, organism-based; parameters: dose 1 mg/kg, route oral; details: in vivo
[9] = Oral bioavailability in Beagle dog at 5 mg/kg; type: ADME, organism-based, Canis lupus familiaris; details: in vivo
[10] = test system: Rattus norvegicus; experiment: Antidiabetic activity in po dosed Sprague-Dawley rat assessed as reduction of post-prandial glucose excursion administered for 60 mins followed by glucose challenge measured up to 120 mins by OGTT; type: functional, organism-based
[11] = test system: Pancreatic islet; experiment: Induction of 9 to 13 mM glucose-induced insulin secretion in rat dispersed pancreatic islet static culture at 0.4 to 12 uM; type: functional
[12] = Half life in cynomolgus monkey at 0.5 mg/kg, iv and 3 mg/kg, po; type: ADME, organism-based, Macaca fascicularis; details: in vivo
[13] = Oral bioavailability in female Sprague-Dawley rat at 1 mg/kg; type: ADME, organism-based; details: in vivo
[14] = test system: Rattus norvegicus; experiment: Volume of distribution at steady state in male Sprague-Dawley rat at 1 mg/kg, iv and po; type: ADME, organism-based; parameters: dose 1 mg/kg, route oral; details: in vivo
[15] = test system: Rattus norvegicus; experiment: Volume of distribution at steady state in female Sprague-Dawley rat at 1 mg/kg, iv and po; type: ADME, organism-based; parameters: dose 1 mg/kg, route oral; details: in vivo
[16] = Volume of distribution at steady state in cynomolgus monkey at 0.5 mg/kg, iv and 3 mg/kg, po; type: ADME, organism-based, Macaca fascicularis; details: in vivo, read-out: Vdss
[17] = Clearance in cynomolgus monkey at 0.5 mg/kg, iv and 3 mg/kg, po; type: ADME, organism-based, Macaca fascicularis; details: in vivo
[18] = Drug excretion in bile duct-cannulated rat bile assessed as parent compound level at 5 mg/kg, iv; type: ADME, organism-based; parameters: dose 5 mg/kg, route intravenous; details: read-out: Drug excretion
[19] = test system: Pancreatic islet; experiment: Induction of 3 to 5 mM glucose-induced insulin secretion in rat dispersed pancreatic islet static culture at 4 to 12 uM; type: functional
[20] = test system: Pancreatic islet; experiment: Induction of 3 to 5 mM glucose-induced insulin secretion in rat dispersed pancreatic islet static culture at 0.4 to 1.2 uM; type: functional
[21] = Half life in Beagle dog at 0.5 mg/kg, iv and 5 mg/kg, po; type: ADME, organism-based, Canis lupus familiaris; details: in vivo
[22] = Oral bioavailability in cynomolgus monkey at 3 mg/kg; type: ADME, organism-based, Macaca fascicularis; details: in vivo
[23] = test system: Pancreatic islet; experiment: Induction of > 22 mM glucose-induced insulin secretion in rat dispersed pancreatic islet static culture at 0.4 to 12 uM; type: functional
[24] = Volume of distribution at steady state in Beagle dog at 0.5 mg/kg, iv and 5 mg/kg, po; type: ADME, organism-based, Canis lupus familiaris; details: in vivo, read-out: Vdss
[25] = Clearance in Beagle dog at 0.5 mg/kg, iv and 5 mg/kg, po; type: ADME, organism-based, Canis lupus familiaris; details: in vivo
[26] = Oral bioavailability in male Sprague-Dawley rat at 1 mg/kg; type: ADME, organism-based; details: in vivo
[27] = Drug excretion in Sprague-Dawley rat urine assessed as parent compound level at 1 mg/kg, iv; type: ADME, organism-based; parameters: dose 1 mg/kg, route intravenous; details: read-out: Drug excretion
[28] = Half life in male Sprague-Dawley rat at 1 mg/kg, iv and po; type: ADME, organism-based; parameters: dose 1 mg/kg, route oral; details: in vivo

## Cc1cnc(NC(=O)c2cc(Oc3ccc(S(C)(=O)=O)cc3)c3cc(C)oc3c2)cn1
[1]
  solubility kinetic: 3 µM (≈ 1.31 µg/mL)
[2]
  EC50: 0.87 µM
[3]
  IC50: 22 µM
[4]
  CLint scaled: 0.78 L/h/kg
[5]
  Papp: 76 nm/s

## Cc1cnc(NC(=O)c2cc(Oc3ccc(C(=O)N(C)C)nc3)c3cc(C)oc3c2)cn1
[1]
  solubility kinetic: 418 µM (≈ 180 µg/mL)
[2]
  EC50: 0.48 µM
[6]
  inhibition at 10 µM: 5%
[4]
  CLint scaled: 0.696 L/h/kg
[5]
  Papp: 285 nm/s

## Cc1cc2c(Oc3cnc(C(=O)N4CC(C)(O)C4)cn3)cc(C(=O)Nc3cnccn3)cc2o1
[1]
  solubility kinetic: 137 µM (≈ 63.1 µg/mL)
[2]
  EC50: > 5 µM
[6]
  inhibition at 10 µM: 10%
[4]
  CLint scaled: < 0.48 L/h/kg
[5]
  Papp: 90 nm/s

## Cc1cc2c(Oc3cnc(C(=O)N4CC(C)C4)cn3)cc(C(=O)Nc3cnccn3)cc2o1
[1]
  solubility kinetic: 49 µM (≈ 21.8 µg/mL)
[2]
  EC50: 0.393 µM
[6]
  inhibition at 10 µM: 11%
[4]
  CLint scaled: < 0.576 L/h/kg
[5]
  Papp: 149 nm/s

## CCc1cnc(NC(=O)c2cc(Oc3cnc(C(=O)N(C)C)cn3)c3cc(C)oc3c2)cn1
[1]
  solubility kinetic: 117 µM (≈ 52.2 µg/mL)
[2]
  EC50: 0.254 µM
[4]
  CLint scaled: 0.732 L/h/kg
[5]
  Papp: 237 nm/s

## Cc1cnc(NC(=O)c2cc(Oc3cnc(C(=O)N(C)C)cn3)c3cc(C)oc3c2)cn1
[1]
  solubility kinetic: 176 µM (≈ 76.1 µg/mL)
[4]
  CLint scaled: < 0.51 L/h/kg

## CS(=O)(=O)c1ccc([C@@H](CC2CCCC2)C(=O)Nc2nccs2)cc1 [Ro-281675]
[7]
  EC50: 0.235 µM

## Cc1cc2c(Oc3cnc(C(=O)N(C)C)cn3)cc(C(=O)Nc3ccn(C)n3)cc2o1
[1]
  solubility kinetic: 540 µM (≈ 227 µg/mL)
[2]
  EC50: 0.331 µM
[6]
  inhibition at 10 µM: 8%
[4]
  CLint scaled: < 0.492 L/h/kg
[5]
  Papp: 154 nm/s

## Cc1cnc(NC(=O)c2cc(Oc3ccc(C#N)cc3)c3cc(C)oc3c2)cn1
[1]
  solubility kinetic: 2 µM (≈ 0.769 µg/mL)
[2]
  EC50: 3.06 µM
[3]
  IC50: 4 µM
[4]
  CLint scaled: 1.74 L/h/kg
[5]
  Papp: 15 nm/s

## CNC(=O)c1cnc(Oc2cc(C(=O)Nc3cnc(C)cn3)cc3oc(C)cc23)cn1
[2]
  EC50: > 5 µM
[6]
  inhibition at 10 µM: 0%
[4]
  CLint scaled: 0.606 L/h/kg
[5]
  Papp: 209 nm/s

## Cc1cc2c(Oc3cnc(C(=O)N(C)C)cn3)cc(C(=O)Nc3ncccn3)cc2o1
[2]
  EC50: > 100 µM
[6]
  inhibition at 10 µM: 4%

## Cc1ccc(Oc2cc(C(=O)Nc3cnc(C)cn3)cc3oc(C)cc23)cc1
[1]
  solubility kinetic: 18 µM (≈ 6.72 µg/mL)
[2]
  EC50: 6.61 µM
[4]
  CLint scaled: 2.82 L/h/kg
[5]
  Papp: 3 nm/s

## Cc1cc2c(Oc3cnc(C(=O)N4CC5(COC5)C4)cn3)cc(C(=O)Nc3cnccn3)cc2o1
[1]
  solubility kinetic: 43 µM (≈ 20.3 µg/mL)
[2]
  EC50: 2.17 µM
[4]
  CLint scaled: 0.774 L/h/kg
[5]
  Papp: 199 nm/s

## Cc1cnc(NC(=O)c2cc(Oc3cnc(C(=O)N4CCCCC4)cn3)c3cc(C)oc3c2)cn1
[1]
  solubility kinetic: 24 µM (≈ 11.3 µg/mL)
[2]
  EC50: 0.261 µM
[6]
  inhibition at 10 µM: 5%
[4]
  CLint scaled: 1.09 L/h/kg
[5]
  Papp: 133 nm/s

## Cc1cnc(NC(=O)c2cc(Oc3cnc(C(=O)N(C)C)nc3)c3cc(C)oc3c2)cn1 [NERIGLIATIN]
[8]
  half-life: 1.2 h
[9]
  bioavailability: 12%
[1]
  solubility kinetic: 463 µM (≈ 200 µg/mL)
[10]
  Activity: Dose-dependent effect
[11]
  Activity: Active
[12]
  half-life: 1.8 h
[13]
  bioavailability: 77%
[14]
  Vdss: 2.1 L/kg
[15]
  Vdss: 1.1 L/kg
[16]
  Vd: 0.83 L/kg
[17]
  clearance: 0.564 L/h/kg
[18]
  dose excreted: 2.3%
[19]
  Activity: Active
[20]
  Activity: inactive
[21]
  half-life: 3.3 h
[22]
  bioavailability: 78%
[23]
  Activity: inactive
[24]
  Vd: 0.65 L/kg
[25]
  clearance: 0.156 L/h/kg
[4]
  CLint scaled: < 0.48 L/h/kg
[26]
  bioavailability: 23%
[27]
  dose excreted: 0.26%
[28]
  half-life: 4.3 h

## Cc1cc2c(Oc3cnc(C(=O)N4CC(C)(C)C4)cn3)cc(C(=O)Nc3cnccn3)cc2o1
[1]
  solubility kinetic: 78 µM (≈ 35.8 µg/mL)
[2]
  EC50: 0.705 µM
[4]
  CLint scaled: 1.27 L/h/kg
[5]
  Papp: 77 nm/s
